Test results taken from paper PMC8482815, “Targeting Host Glycolysis as a Strategy for Antimalarial Development” (Frontiers in Cellular and Infection Microbiology, 2021).
Read-outs that look alike come from different tables or passages of the source.

Columns and labels:
[1] = system: human erythrocytes; assay: Detection and quantification of MetHb formation in cultured erythrocytes; type: cell-based; conditions: MetHb formation, 500 = highest concentration tested
Protocol: (§1) Banked blood (Saint Louis Children’s Hospital) and fresh blood [healthy donors] was washed and stored at 50% hematocrit at 4°C up to 1 month past the clinical expiration date and collection date, respectively. Parasite strains provided by the Malaria Research and Reference Reagent Resource Center (MR4) as follows: 3D7 (MRA-102); K1 (MRA-159); D10 (MRA-201); and IPC-5202 (MRA-1240). Unless indicated, erythrocytes were cultured as previously described at 2% hematocrit in complete media (incomplete media supplemented with 27mM sodium bicarbonate, 11mM glucose, 5mM HEPES, 1mM sodium pyruvate, 0.37mM hypoxanthine, 0.01mM thymidine, 10µg/mL gentamicin, and 0.5% Albumax I (Thermo-Fisher) under 5% O2/5% CO2/90% N2 atmosphere at 37°C ([Guggisberg et al., 2014]).
MetHb was detected by measuring absorbance in the 630-640nm range, which is specific from other hemoglobin subforms (oxyhemoglobin, deoxyhemoglobin, and carboxyhemoglobin). Supernatants were removed and erythrocyte pellets were fully lysed and diluted, as described above. The absorption peak for oxyhemoglobin (575nm) and MetHb (630nm) were measured and the EC50 of MetHb formation was determined using non-linear regression analysis (GraphPad Prism).

[2] = system: P. falciparum strain 3D7; assay: Plasmodium falciparum growth inhibition assay (Picogreen DNA content, three-day incubation); type: cell-based; conditions: for S.I. + pyruvate (Supplemental Table 4): MetHb EC50 / parasite EC50, with pyruvate; for S.I. - pyruvate (Supplemental Table 4): MetHb EC50 / parasite EC50, without pyruvate; for S.I. Fold Change (Supplemental Table 4): change in S.I. with versus without pyruvate
Protocol: as §1
(§2) Asynchronous cultures diluted to 1% parasitemia in 100μL wells were subjected to drug dilutions, solvent controls, and untreated uninfected erythrocyte controls in technical duplicates. Following a three-day incubation, DNA content was quantified using Picogreen (Life Technologies), as previously described ([Corbett et al., 2004]). Half-maximal effective concentrations (EC50) were determined from nonlinear regression of three biological replicates (GraphPad Prism).

[3] = system: P. falciparum D10 (mefloquine resistant); assay: Plasmodium falciparum growth inhibition assay, drug-resistant line D10; type: cell-based; conditions: D10, mefloquine resistant, means ± s.e.m, read-out: EC50 (nM), P. falciparum D10
Protocol: (§3) Banked blood (Saint Louis Children’s Hospital) and fresh blood [healthy donors] was washed and stored at 50% hematocrit at 4°C up to 1 month past the clinical expiration date and collection date, respectively. Parasite strains provided by the Malaria Research and Reference Reagent Resource Center (MR4) as follows: 3D7 (MRA-102); K1 (MRA-159); D10 (MRA-201); and IPC-5202 (MRA-1240). […]
as §2, with “Prism). […]” for “Prism).”
(§4) Supplemental Table 5. […] Half-maximal inhibitor concentrations (EC50s) were determined for drug resistant malaria parasites and compared to the sensitive 3D7 strain. The respective EC50s are calculated from each of the independent biological replicates using a non-linear regression of the log of the inhibitor concentration with data from each technical replicate normalized to maximal and minimal growth using the software package GraphPad Prism. […]
(§5) means ± s.e.m calculated from three biological replicates.

[4] = system: luciferase-expressing P. berghei ANKA parasites; assay: In vivo efficacy against blood stage parasite burden (luciferase imaging); set-up: species or system Swiss-Webster mice; conditions: i.p. daily for five days; 30mg/kg POM-HEX, 5mg/kg POM-SF
Protocol: (§6) Groups of five female Swiss-Webster mice were injected intraperitoneally (i.p.) with 10^3 luciferase-expressing P. berghei ANKA parasites ([Franke-Fayard et al., 2008]). Forty-eight hours post infection, mice were injected i.p. daily for five days with either 200µL of 2% methylcellulose/0.5% Tween80, 40mg/kg chloroquine, 100mg/kg HEX, 30mg/kg POM-HEX, or 5mg/kg POM-SF. Enolase inhibitors dosing were selected as approximately 3-fold lower than the maximum acutely tolerated dose for each compound by i.p. injection. Day 7 post-infection, mice were injected with 150mg/kg D-luciferin potassium salt in PBS (GoldBio) and imaged on an IVIS 100 and parasite burden assessed (Xenogen LivingImage).

[5] = system: P. falciparum IPC-5202 (chloroquine and artemisinin resistant); assay: Plasmodium falciparum growth inhibition assay, drug-resistant line IPC-5202; type: cell-based; conditions: chloroquine and artemisinin resistant, means ± s.e.m, read-out: EC50 (nM), P. falciparum IPC-5202
Protocol: as §3
as §2, with “Prism). […]” for “Prism).”
as §4, §5

[6] = system: P. falciparum K1 (chloroquine and sulfadoxine-pyrimethamine resistant); assay: Plasmodium falciparum growth inhibition assay, drug-resistant line K1; type: cell-based; conditions: K1, chloroquine and sulfadoxine-pyrimethamine resistant, means ± s.e.m, read-out: EC50 (nM), P. falciparum K1
Protocol: as §3
as §2, with “Prism). […]” for “Prism).”
as §4, §5

[7] = system: P. falciparum; set-up: method as in Vennerstrom et al., 1999; Phillips et al., 2015; conditions: ref Vennerstrom et al., 1999; Phillips et al., 2015; read-out: EC50, in vitro potency of other antimalarial compounds; cited from earlier work
[8] = system: P. berghei ANKA; type: in vivo, Swiss Webster mice; conditions: 2DG 200 mg/kg
Protocol: as §6
The glucose mimetic 2-DG and enolase inhibitors POM-HEX, and HEX were evaluated in the P. berghei mouse model of cerebral malarial, as previously described ([Wang et al., 2018]). Briefly, in addition to groups of mice (n = 5) dosed as described above for POM-HEX and HEX, 2-DG was administered to an additional group (n = 5) at 200mg/kg twice daily and all were monitored for survival, parasitemia (blood smear Giemsa), and clinical signs of cerebral malaria (paralysis, deviation of the head, ataxia, convulsions, and coma) over 15 days.

[9] = with pyruvate, read-out: MetHb EC50 + pyruvate (Supplemental Table 4)
[10] = without pyruvate, read-out: MetHb EC50 - pyruvate (Supplemental Table 4)
[11] = P. falciparum growth, with pyruvate, read-out: Parasite EC50 + pyruvate (Supplemental Table 4)
[12] = P. falciparum growth, without pyruvate, 500 = highest concentration tested, read-out: Parasite EC50 - pyruvate (Supplemental Table 4)

SMILES | EC50 [1, 9] [µM] | EC50 [1, 10] [µM] | S.I. + pyruvate (Supplemental Table 4) [2] | S.I. - pyruvate (Supplemental Table 4) [2] | EC50 [2, 11] [nM] | EC50 [2, 12] [nM] | S.I. Fold Change (Supplemental Table 4) [2] | also measured
CC(=O)ON1CCCC(P(=O)(OCOC(=O)C(C)(C)C)OCOC(=O)C(C)(C)C)C1=O (centres unmarked) [SDR23] | 2.5 ± 0.34 | 1.3 ± 0.07 | 1.6 | 0.6 | 1600 ± 110 | 2100 ± 250 | 2.5 | –
CC(C)(C)C(=O)OCOP(=O)(OCOC(=O)C(C)(C)C)C1CC(O)N(O)C1=O (centres unmarked) [POM-SF] | – | – | 1.9 | 0.1 | – | – | 13.6 | EC50 ([1]; Homo sapiens, Erythrocyte, absence of 1mM pyruvate, mean ± s.e.m., EC50 not resolved, read-out: MetHb EC50 - pyruvate): 0.1 ± 0.002 µM; EC50 ([1]; Homo sapiens, Erythrocyte, presence of 1mM pyruvate, mean ± s.e.m., EC50 not resolved, read-out: MetHb EC50 + pyruvate): 0.48 ± 0.01 µM; EC50 [3]: 437 ± 83 nM; effect on parasite burden (in words) [4]: does not forestall a lethal parasite burden; EC50 [5]: 321 ± 11 nM; EC50 ([2]; Plasmodium falciparum, 3D7, 72 h, P. falciparum growth, presence of 1mM pyruvate, mean ± s.e.m., read-out: Parasite EC50 + pyruvate): 250 ± 10 nM; EC50 ([2]; Plasmodium falciparum, 3D7, P. falciparum growth, absence of 1mM pyruvate, mean ± s.e.m., 500 = highest concentration tested, EC50 not resolved, read-out: Parasite EC50 - pyruvate): 710 ± 40 nM; EC50 ([2]; Plasmodium falciparum, 3D7, means ± s.e.m, three biological replicates, read-out: EC50 (nM), P. falciparum 3D7 (pan-sensitive)): 185 ± 18 nM; T.I. Fold change ([2]; change in T.I. with versus without 1mM pyruvate): 13.6; T.I. + pyruvate ([2]; therapeutic index = [EC50 for MetHb formation]/[EC50 for parasite growth inhibition], with 1mM pyruvate): 1.9; T.I. - pyruvate ([2]; therapeutic index = [EC50 for MetHb formation]/[EC50 for parasite growth inhibition], without pyruvate): 0.1; EC50 [6]: 361 ± 34 nM
CC(C)OC(=O)OCOP(=O)(OCOC(=O)OC(C)C)C1CCCN(O)C1=O (centres unmarked) [Compound J52] | 0.49 ± 0.02 | 0.77 ± 0.04 | 0.3 | 0.3 | 1600 ± 4000 | 2900 ± 400 | 1.2 | –
CC1(P(=O)(O)O)CC(O)N(O)C1=O (centres unmarked) [MethylSF-2312] | > 500 | > 500 | 19.2 | 3.8 | 26000 ± 2900 | 130000 ± 3500 | 5.1 | –
COc1cc(C)c2c(Oc3cccc(C(F)(F)F)c3)c(OC)cc(NC(C)CCCN)c2n1 (centres unmarked) [tafenoquine] | – | – | – | – | – | – | – | EC50 [7]: 0.436 µM
Cc1cc(Nc2ccc(S(F)(F)(F)(F)F)cc2)n2nc(C(C)(F)F)nc2n1 [DSM265] | – | – | – | – | – | – | – | EC50 [7]: 0.053 µM
O=C1C(P2(=O)NCCCO2)CCCN1O (centres unmarked) [PKM J45] | > 500 | > 500 | 5.3 | 14.3 | 94000 ± 4700 | 35000 ± 3100 | 0.4 | –
O=CC[C@@H](O)[C@H](O)[C@H](O)CO [Compound 2-DG, 2-deoxyglucose, reference compound] | – | – | – | – | – | – | – | effect on clinical score, overall survival, cerebral malaria (in words) ([8]; POM-HEX 30 mg/kg): did not improve; parasitemia ([8]; d4, blood smear Giemsa, treated from day 2, HEX 100 mg/kg, control 7.8±3.3%): 13.3±3.9%
O=C1C(P(=O)(O)O)CC(O)N1O (centres unmarked) [SF-2312, reference compound] | > 500 | > 500 | 18.5 | 2.8 | 27000 ± 2000 | 180000 ± 9300 | 6.6 | EC50 ([2]; asexual P. falciparum, phosphonates, read-out: half maximal effective concentrations (EC50s), parasite growth): > 15000 nM
O=C1C(P(=O)(O)O)CCN1O (centres unmarked) [DeoxySF-2312] | > 500 | > 500 | 16.7 | 6.3 | 30000 ± 9700 | 80000 ± 2000 | 2.7 | selectivity for antiparasitic activity over erythrocyte toxicity (in words) ([2]; parasite growth versus MetHb formation): notably selective
CC(C)OC(=O)C(C)NP(=O)(Oc1ccccc1)C1CCCN(O)C1=O (centres unmarked) [SDR6] | > 500 | > 500 | 8.3 | 10.4 | 60000 ± 13000 | 48000 ± 2800 | 0.8 | –
CC(C)OC(=O)C(C)NP(=O)(NC(C)C(=O)OC(C)C)C1CCCN(O)C1=O (centres unmarked) [SDR4] | > 500 | > 500 | 6.8 | 15.6 | 73000 ± 8700 | 32000 ± 2400 | 0.4 | –
